According to ChEMBL document CHEMBL1201862, “PubChem BioAssay data set” (2004):
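Assay format: 96-well plates, 48-hour exposure. GI50: concentration for 50% inhibition of growth.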 Active and inactive are the calls of the source. Rule as the data show it: active = GI50 up to about 1.1 µM and inactive = higher.

What was measured:
Assay in all cases: growth of human tumour cells (NCI), 48 h
[1] = system: IGROV-1
[2] = system: SF-295
[3] = system: CCRF-CEM
[4] = system: MCF7
[5] = system: RPMI-8226
[6] = system: HOP-92
[7] = system: SR
[8] = system: MDA-MB-435
[9] = system: CAKI-1
[10] = system: SK-MEL-28
[11] = system: UACC-62
[12] = system: OVCAR-3
[13] = system: RXF 393
[14] = system: SN12C
[15] = system: SK-MEL-5
[16] = system: NCI/ADR-RES
[17] = system: T47D
[18] = system: SF-268
[19] = system: SK-MEL-2
[20] = system: OVCAR-4

Compound	GI50 [1]	GI50 [2]	GI50 [3]	GI50 [4]	GI50 [5]	GI50 [6]	GI50 [7]	GI50 [8]	GI50 [9]	GI50 [10]	GI50 [11]	GI50 [12]	GI50 [13]	GI50 [14]	GI50 [15]	GI50 [16]	GI50 [17]	GI50 [18]	GI50 [19]	GI50 [20]
O=S(=O)(O)c1ccc(/N=N/c2c(O)ccc3ccccc23)cc1	> 100 µM (inactive)	> 100 µM (inactive)	> 100 µM (inactive)	> 100 µM (inactive)	> 100 µM (inactive)	> 69.8 µM (inactive)	> 100 µM (inactive)	> 100 µM (inactive)	> 100 µM (inactive)	> 100 µM (inactive)	> 100 µM (inactive)	> 100 µM (inactive)	> 100 µM (inactive)	> 100 µM (inactive)	> 100 µM (inactive)	> 100 µM (inactive)	> 100 µM (inactive)	> 100 µM (inactive)	> 100 µM (inactive)	> 100 µM (inactive)
CCc1nc(N)nc(N)c1-c1ccc(Cl)c(/N=N/N(C)C)c1	24.1 µM (inactive)	26.5 µM (inactive)	27 µM (inactive)	37.7 µM (inactive)	19 µM (inactive)	47.8 µM (inactive)	19.1 µM (inactive)	27.9 µM (inactive)	36.1 µM (inactive)	29.1 µM (inactive)	24.9 µM (inactive)	37.6 µM (inactive)	41.4 µM (inactive)	67.8 µM (inactive)	20.7 µM (inactive)	23.8 µM (inactive)	39.7 µM (inactive)	49.2 µM (inactive)	32.2 µM (inactive)	25.1 µM (inactive)
CCCCCCCCCCCC[S+](C)C	2 µM (inactive)	5.87 µM (inactive)	2.04 µM (inactive)	9.02 µM (inactive)	3.41 µM (inactive)	1.63 µM (inactive)	8.69 µM (inactive)	3.36 µM (inactive)	1.57 µM (inactive)	10.5 µM (inactive)	6.4 µM (inactive)	5.38 µM (inactive)	2.07 µM (inactive)	3.88 µM (inactive)	3.17 µM (inactive)	> 44.1 µM (inactive)	0.516 µM (active)	6.68 µM (inactive)	5.02 µM (inactive)	6.07 µM (inactive)
Cc1ccc(S(=O)(=O)N2C[C@@H]3CC[C@]4(CO[Si](C)(C)C(C)(C)C)N[C@@H](c5ccccc5)[C@H]2[C@H]34)cc1	31.3 µM (inactive)	24.9 µM (inactive)	43.2 µM (inactive)	28.6 µM (inactive)	7.87 µM (inactive)	3.44 µM (inactive)	16.2 µM (inactive)	39.2 µM (inactive)	27.2 µM (inactive)	> 100 µM (inactive)	56.4 µM (inactive)	32 µM (inactive)	14.5 µM (inactive)	19.6 µM (inactive)	13.8 µM (inactive)	25.9 µM (inactive)	8.18 µM (inactive)	45.7 µM (inactive)	48.2 µM (inactive)	26.5 µM (inactive)
O=C1c2cccc([N+](=O)[O-])c2C(=O)N1Cc1ccccc1	> 100 µM (inactive)	> 100 µM (inactive)	> 100 µM (inactive)	> 100 µM (inactive)	> 100 µM (inactive)	> 100 µM (inactive)	> 100 µM (inactive)	> 100 µM (inactive)	> 100 µM (inactive)	> 100 µM (inactive)	> 100 µM (inactive)	> 100 µM (inactive)	> 100 µM (inactive)	> 100 µM (inactive)	> 100 µM (inactive)	> 100 µM (inactive)	> 100 µM (inactive)	> 100 µM (inactive)	> 100 µM (inactive)	> 100 µM (inactive)
CC[C@@]1(O)C(=O)OCc2c1cc1n(c2=O)Cc2c-1nc1ccccc1c2/C=N\NC(=O)C(N)CC(C)C (stereo not given in full)	0.233 µM (active)	< 0.01 µM (active)	< 0.01 µM (active)	< 0.01 µM (active)	0.024 µM (active)	0.0815 µM (active)	< 0.01 µM (active)	0.143 µM (active)	< 0.01 µM (active)	0.605 µM (active)	< 0.01 µM (active)	0.297 µM (active)	< 0.0143 µM (active)	< 0.01 µM (active)	< 0.0128 µM (active)	0.0215 µM (active)	< 0.01 µM (active)	< 0.01 µM (active)	0.6 µM (active)	0.44 µM (active)
CN1N=C(N)c2cn(C3OC(COP(=O)(O)O)C(O)C3O)c3ncnc1c23 (stereo not given)	0.935 µM (active)	144 µM (inactive)	13 µM (inactive)	1.65 µM (inactive)	282 µM (inactive)	0.5 µM (active)	10.8 µM (inactive)	34.3 µM (inactive)	1.18 µM (inactive)	194 µM (inactive)	28.4 µM (inactive)	35.2 µM (inactive)	14 µM (inactive)	4.24 µM (inactive)	1080 µM (inactive)	4.08 µM (inactive)	0.5 µM (active)	55.6 µM (inactive)	8.26 µM (inactive)	5.86 µM (inactive)
CN(C)CCCNC(=O)c1c(O)c2ccccc2n(C)c1=O	> 100 µM (inactive)	48.5 µM (inactive)	43.1 µM (inactive)	43.9 µM (inactive)	73.8 µM (inactive)	14.3 µM (inactive)	41.5 µM (inactive)	61.8 µM (inactive)	41.4 µM (inactive)	74.6 µM (inactive)	64.9 µM (inactive)	> 100 µM (inactive)	35.5 µM (inactive)	67.1 µM (inactive)	53.7 µM (inactive)	41.2 µM (inactive)	71.3 µM (inactive)	49.8 µM (inactive)	64.1 µM (inactive)	78.3 µM (inactive)
O=[N+]([O-])c1cccc2nccc(NCCN3CCOCC3)c12	17.4 µM (inactive)	13.9 µM (inactive)	5.55 µM (inactive)	9.46 µM (inactive)	7.94 µM (inactive)	33.2 µM (inactive)	10.1 µM (inactive)	22.9 µM (inactive)	2.6 µM (inactive)	17.9 µM (inactive)	> 10 µM (inactive)	14.2 µM (inactive)	11.6 µM (inactive)	16.3 µM (inactive)	10 µM (inactive)	29.4 µM (inactive)	23 µM (inactive)	20.5 µM (inactive)	14.7 µM (inactive)	8.99 µM (inactive)
N=C(N)NCC1CCCCCCN1 (stereo not given)	> 100 µM (inactive)	> 100 µM (inactive)	> 100 µM (inactive)	> 100 µM (inactive)	> 100 µM (inactive)	> 100 µM (inactive)	> 100 µM (inactive)	> 100 µM (inactive)	> 100 µM (inactive)	> 100 µM (inactive)	> 100 µM (inactive)	> 100 µM (inactive)	> 100 µM (inactive)	> 100 µM (inactive)	> 100 µM (inactive)	> 100 µM (inactive)	> 100 µM (inactive)	> 100 µM (inactive)	> 100 µM (inactive)	> 100 µM (inactive)
COc1ccc(N2CN3OC(=O)N(c4ccc(OC)cc4)[C@@]3(c3ccccc3)C2)cc1	20.7 µM (inactive)	16.5 µM (inactive)	6 µM (inactive)	16.9 µM (inactive)	18.7 µM (inactive)	15.9 µM (inactive)	2.79 µM (inactive)	2.4 µM (inactive)	19.1 µM (inactive)	34.5 µM (inactive)	13.6 µM (inactive)	13.1 µM (inactive)	19.9 µM (inactive)	31.6 µM (inactive)	11.9 µM (inactive)	9.48 µM (inactive)	14.3 µM (inactive)	73.6 µM (inactive)	5.51 µM (inactive)	20.3 µM (inactive)
O=c1c2cc(Br)ccc2oc2nc3n(c(=O)c12)CCCS3	> 100 µM (inactive)	> 100 µM (inactive)	> 100 µM (inactive)	> 100 µM (inactive)	> 100 µM (inactive)	> 100 µM (inactive)	> 100 µM (inactive)	> 100 µM (inactive)	> 100 µM (inactive)	> 100 µM (inactive)	> 100 µM (inactive)	> 100 µM (inactive)	> 100 µM (inactive)	> 100 µM (inactive)	47.5 µM (inactive)	> 100 µM (inactive)	30.1 µM (inactive)	> 100 µM (inactive)	> 100 µM (inactive)	> 100 µM (inactive)
Cc1cc(C)c2c(=O)cc(-c3ccccc3)[nH]c2c1	2.86 µM (inactive)	3.63 µM (inactive)	1.49 µM (inactive)	3.01 µM (inactive)	2.02 µM (inactive)	19.1 µM (inactive)	2.01 µM (inactive)	0.211 µM (active)	3.29 µM (inactive)	2.52 µM (inactive)	1.6 µM (inactive)	3.47 µM (inactive)	1.61 µM (inactive)	5.25 µM (inactive)	1.3 µM (inactive)	1.61 µM (inactive)	12.5 µM (inactive)	7.82 µM (inactive)	8.17 µM (inactive)	9.71 µM (inactive)
CC1OC(=O)C2CC3CCCCC3C(/C=C/C3CCCC(C)N3C)C12 (stereo not given)	> 100 µM (inactive)	63.1 µM (inactive)	> 100 µM (inactive)	90.8 µM (inactive)	> 100 µM (inactive)	> 100 µM (inactive)	> 100 µM (inactive)	> 100 µM (inactive)	> 100 µM (inactive)	> 100 µM (inactive)	> 100 µM (inactive)	> 100 µM (inactive)	> 100 µM (inactive)	> 100 µM (inactive)	94.6 µM (inactive)	> 100 µM (inactive)	> 100 µM (inactive)	> 100 µM (inactive)	83.2 µM (inactive)	> 100 µM (inactive)
